Results as given in the NIST ThermoML archive (doi:10.1021/je050001c).
Counter-ions that a name gives are not always drawn. Numbers after ± are expanded uncertainties.

Conditions: 101.33 kPa, Liquid
[1] = 293.15 K, Falling or rolling sphere viscometry
[2] = 298.15 K, Falling or rolling sphere viscometry
[3] = 303.15 K, Falling or rolling sphere viscometry
[4] = 308.15 K, Falling or rolling sphere viscometry
[5] = 313.15 K, Falling or rolling sphere viscometry
[6] = 318.15 K, Falling or rolling sphere viscometry
[7] = 323.15 K, Falling or rolling sphere viscometry
[8] = 328.15 K, Falling or rolling sphere viscometry
[9] = 333.15 K, Falling or rolling sphere viscometry
[10] = 338.15 K, Falling or rolling sphere viscometry
[11] = 343.15 K, Falling or rolling sphere viscometry

SMILES	mass density (293.15 K)	viscosity [1]	mass density (298.15 K)	viscosity [2]	mass density (303.15 K)	viscosity [3]	mass density (308.15 K)	viscosity [4]	mass density (313.15 K)	viscosity [5]	mass density (318.15 K)	viscosity [6]	mass density (323.15 K)	viscosity [7]	mass density (328.15 K)	viscosity [8]	mass density (333.15 K)	viscosity [9]	mass density (338.15 K)	mass density (343.15 K)	also measured
CCCC(=O)OCCC(C)C [3-methylbutyl butanoate]	866.13 ± 5.6 kg/m3	1.044 ± 0.014 mPa·s	862.04 ± 5.6 kg/m3	0.967 ± 0.013 mPa·s	859.14 ± 5.7 kg/m3	0.897 ± 0.013 mPa·s	857.08 ± 5.7 kg/m3	0.836 ± 0.012 mPa·s	853.42 ± 5.7 kg/m3	0.781 ± 0.012 mPa·s	850.11 ± 5.7 kg/m3	0.731 ± 0.011 mPa·s	845.78 ± 5.7 kg/m3	0.686 ± 0.011 mPa·s	842.31 ± 5.7 kg/m3	0.646 ± 0.011 mPa·s	840.73 ± 5.8 kg/m3	0.609 ± 0.01 mPa·s	835.45 ± 5.8 kg/m3	832.76 ± 5.8 kg/m3	viscosity [10]: 0.575 ± 0.01 mPa·s; viscosity [11]: 0.545 ± 0.01 mPa·s
CCCCCC(=O)OCC [ethyl hexanoate]	879.01 ± 3.3 kg/m3	0.816 ± 0.011 mPa·s	872.53 ± 3.4 kg/m3	0.757 ± 0.011 mPa·s	869.31 ± 3.5 kg/m3	0.704 ± 0.011 mPa·s	866.74 ± 3.5 kg/m3	0.656 ± 0.01 mPa·s	863.28 ± 3.6 kg/m3	0.614 ± 0.01 mPa·s	860.19 ± 3.6 kg/m3	0.576 ± 0.01 mPa·s	856.42 ± 3.7 kg/m3	0.541 ± 0.01 mPa·s	851.93 ± 3.8 kg/m3	0.509 ± 0.009 mPa·s	847.88 ± 3.8 kg/m3	0.482 ± 0.009 mPa·s	845.32 ± 3.9 kg/m3	841.46 ± 4 kg/m3	viscosity [10]: 0.456 ± 0.009 mPa·s; viscosity [11]: 0.429 ± 0.009 mPa·s
CCCCCCOC(C)=O [hexyl ethanoate]	872.9 ± 3.4 kg/m3	1.118 ± 0.013 mPa·s	867.3 ± 3.5 kg/m3	1.036 ± 0.012 mPa·s	862.6 ± 3.6 kg/m3	0.962 ± 0.012 mPa·s	858.33 ± 3.6 kg/m3	0.895 ± 0.011 mPa·s	854.9 ± 3.7 kg/m3	0.836 ± 0.011 mPa·s	848.84 ± 3.8 kg/m3	0.782 ± 0.011 mPa·s	844.21 ± 3.9 kg/m3	0.733 ± 0.01 mPa·s	839.64 ± 4 kg/m3	0.689 ± 0.01 mPa·s	835.15 ± 4 kg/m3	0.649 ± 0.01 mPa·s	831.4 ± 4.1 kg/m3	826.3 ± 4.2 kg/m3	viscosity [10]: 0.612 ± 0.01 mPa·s; viscosity [11]: 0.579 ± 0.01 mPa·s
CCOC(=O)CC(C)C [ethyl 3-methylbutanoate]	866.23 ± 6.5 kg/m3	0.805 ± 0.011 mPa·s	864.01 ± 6.5 kg/m3	0.752 ± 0.011 mPa·s	860.12 ± 6.5 kg/m3	0.703 ± 0.011 mPa·s	855.98 ± 6.5 kg/m3	0.659 ± 0.01 mPa·s	851.79 ± 6.6 kg/m3	0.62 ± 0.01 mPa·s	847.39 ± 6.6 kg/m3	0.581 ± 0.01 mPa·s	846.24 ± 6.6 kg/m3	0.544 ± 0.01 mPa·s	842.35 ± 6.6 kg/m3	0.516 ± 0.009 mPa·s	840.07 ± 6.6 kg/m3	0.485 ± 0.009 mPa·s	836.31 ± 6.7 kg/m3	833.62 ± 6.7 kg/m3	viscosity [10]: 0.457 ± 0.009 mPa·s; viscosity [11]: 0.431 ± 0.009 mPa·s
CC/C=C\CCOC=O [(Z)-3-hexenyl formate]	909.15 ± 3 kg/m3	0.599 ± 0.012 mPa·s	908.13 ± 3 kg/m3	0.561 ± 0.012 mPa·s	906.6 ± 3.1 kg/m3	0.527 ± 0.011 mPa·s	904.95 ± 3.1 kg/m3	0.496 ± 0.011 mPa·s	903.17 ± 3.1 kg/m3	0.469 ± 0.011 mPa·s	901.19 ± 3.1 kg/m3	0.443 ± 0.01 mPa·s	898.99 ± 3.2 kg/m3	0.421 ± 0.01 mPa·s	896.72 ± 3.2 kg/m3	0.4 ± 0.01 mPa·s	894.16 ± 3.3 kg/m3	0.38 ± 0.01 mPa·s	891.54 ± 3.3 kg/m3	888.73 ± 3.3 kg/m3	viscosity [10]: 0.363 ± 0.01 mPa·s; viscosity [11]: 0.346 ± 0.01 mPa·s
CC(=O)OCCC(C)C [3-methylbutyl ethanoate]	878.24 ± 12 kg/m3	0.888 ± 0.012 mPa·s	876.01 ± 12 kg/m3	0.827 ± 0.011 mPa·s	875.94 ± 12 kg/m3	0.773 ± 0.011 mPa·s	873.1 ± 12 kg/m3	0.724 ± 0.011 mPa·s	870.15 ± 12 kg/m3	0.678 ± 0.01 mPa·s	867.32 ± 12 kg/m3	0.638 ± 0.01 mPa·s	864.31 ± 12 kg/m3	0.601 ± 0.01 mPa·s	860.14 ± 12 kg/m3	0.567 ± 0.01 mPa·s	857.98 ± 12 kg/m3	0.536 ± 0.009 mPa·s	854.05 ± 12 kg/m3	851.07 ± 12 kg/m3	viscosity [10]: 0.507 ± 0.009 mPa·s; viscosity [11]: 0.481 ± 0.009 mPa·s
CCCCCCOC(=O)CCC [hexyl butanoate]	860.73 ± 3.6 kg/m3	–	851 ± 3.8 kg/m3	–	846.52 ± 3.9 kg/m3	–	841.51 ± 4 kg/m3	–	837.46 ± 4 kg/m3	–	834.65 ± 4.1 kg/m3	–	830.78 ± 4.1 kg/m3	–	828.19 ± 4.2 kg/m3	–	826.77 ± 4.2 kg/m3	–	823.81 ± 4.2 kg/m3	820.76 ± 4.3 kg/m3	viscosity (293.15 K): 1.351 ± 0.044 mPa·s; viscosity (298.15 K): 1.234 ± 0.04 mPa·s; viscosity (303.15 K): 1.131 ± 0.037 mPa·s; viscosity (308.15 K): 1.014 ± 0.033 mPa·s; viscosity (313.15 K): 0.961 ± 0.031 mPa·s; viscosity (318.15 K): 0.889 ± 0.029 mPa·s; viscosity (323.15 K): 0.825 ± 0.027 mPa·s; viscosity (328.15 K): 0.768 ± 0.025 mPa·s; viscosity (333.15 K): 0.716 ± 0.023 mPa·s; viscosity (338.15 K): 0.669 ± 0.022 mPa·s; viscosity (343.15 K): 0.627 ± 0.02 mPa·s
CCOC(=O)C(C)CC (stereo unspecified) [ethyl 2-methylbutanoate]	869.73 ± 7.4 kg/m3	0.831 ± 0.011 mPa·s	865 ± 7.4 kg/m3	0.774 ± 0.01 mPa·s	861.48 ± 7.5 kg/m3	0.723 ± 0.01 mPa·s	857.88 ± 7.5 kg/m3	0.677 ± 0.01 mPa·s	853.41 ± 7.5 kg/m3	0.635 ± 0.01 mPa·s	849.32 ± 7.5 kg/m3	0.597 ± 0.01 mPa·s	846.74 ± 7.5 kg/m3	0.563 ± 0.009 mPa·s	841.59 ± 7.5 kg/m3	0.532 ± 0.009 mPa·s	838.41 ± 7.5 kg/m3	0.503 ± 0.009 mPa·s	835.48 ± 7.6 kg/m3	831.46 ± 7.6 kg/m3	viscosity [10]: 0.476 ± 0.009 mPa·s; viscosity [11]: 0.452 ± 0.009 mPa·s
